From patent US20150037399A1, “NOVEL USE OF PIPOXOLAN AND ITS PHARMACEUTICAL COMPOSITION” (China Medical University, priority 2013, published 2015)

Key:
[1] = test system: PDGF-BB-induced migration of A7r5 cells (VSMCs); test: Transwell migration assay; assay type: cell-based; details: PDGF-BB 30 ng/ml 48 hr, vs PDGF-BB control, read-out: percent inhibition of cell migration across the membrane
Protocol: The VSMCs cell line A7r5 was purchased from Bioresource Collection and Research Center (Hsinchu, Taiwan). A7r5 cells were plated onto 6-well plates in DMEM, supplemented with 10% FBS, 100 units/ml penicillin, 100 μg/ml streptomycin and 2 mM L-glutamine and grown at 37° C. under a humidified 5% CO2 and 95% air at one atmosphere. Effects of pipoxolan on VSMCs migration were further investigated by a transwell migration chamber with a collagen-coated polycarbonate filter. A7r5 cells (2×10^5 cells) were seeded on a transwell apparatus (a 6.5-mm polyethylene terephthalate membrane with 8-μm pores) and treated with pipoxolan (0, 5, 10 and 15 μM) in the presence of PDGF-BB (30 ng/ml) for 48 hr. The cells were then trypsinized, resuspended in 0.5% FBS medium. FBS/DMEM (10%) was added to the bottom chamber of each well as the chemoattractant. Cells were allowed to migrate for 8 hr through the membrane to the underside of the apparatus. Cells were then fixed with methanol for 10 min and stained with Giemsa solution for 30 min. The cells migrating to the lower outside of the insert membrane were counted manually using a microscope and the NIS-Elements software.

[2] = test system: carotid-ligation induced intimal hyperplasia; test: Carotid ligation model, intima/media ratio (hematoxylin-eosin staining); assay type: in vivo, ICR mice; details: mice, vs control group
Protocol: Male ICR mice, weighing 20 to 25 g, were used as a carotidligation model. Fifteen mice were randomly assigned to 3 treatment groups, five mice for each group. All mice were fasted overnight with free access to water, then anesthetized with zoletil® (25 mg/kg i.p.). Carotid ligation was performed by a midline neck incision and the left common carotid artery exposed. The carotid artery was completely ligated just proximal to the carotid bifurcation, and the right carotid artery served as a non-injured control artery. The incision was closed after ligation, and the animals were allowed to recover. On the day of carotid ligation, mice were randomized into 3 treatment groups and anesthetized as described. Group 1 mice were treated with saline and groups 2 and 3 treated with pipoxolan (10 mg/kg and 30 mg/kg, respectively). Subsequent pipoxolan and saline treatments were given by gastric gavage on the second day after carotid ligation and once daily for 28 days. […] Images were digitized and analyzed with Image-Pro software. The areas of the lumen, internal elastic lamina (IEL), and external elastic lamina (EEL) were determined by computerized planimetry. The intima area was calculated by subtracting the luminal from the IEL area, and media area was determined by subtracting the IEL area from the EEL area. The ratio of intima to media area (I/M ratio) was calculated and analyzed. […]

## Cl.O=C1OC(CCN2CCCCC2)OC1(c1ccccc1)c1ccccc1 (centres unmarked) [pipoxolan, 5,5-diphenyl-2-(2-piperidin-1-ylethyl)-1,3-dioxolan-4-one hydrochloride]
[1]; 5 μM
  inhibition at 5 µM: 46.2%
[1]; 10 μM
  inhibition at 10 µM: 62.2%
[1]; 15 μM
  inhibition at 15 µM: 76.5%
[2]; 10 mg/kg p.o. once daily for 28 days after carotid ligation
  percent reduction of I/M ratio (intima/media): 24.21%
[2]; 30 mg/kg p.o. once daily for 28 days after carotid ligation
  percent reduction of I/M ratio (intima/media): 47.20%
